Measurements published in patent US12680128B2.

Key:
[1] = biological target: APOBEC3A (A3A) (Homo sapiens, UniProt P31941); experiment: A3A deamination of ssDNA with homogeneously 5-modified cytosines (TA cloning assay); format: biochemical; settings: 8 μM A3A, 37° C., two hours
Method: Single stranded DNA with homogenously modified cytosines was obtained by LATE-PCR as previously described (Schutsky et al. Nucleic Acids Res 2017). Modified triphosphates were obtained from TriLink unless otherwise noted here (mC: NEB, peC/pC: synthesized in house, purified by ion-pair chromatography, Ghanty et al. JACS 2018). 1 ng of purified single stranded DNA was incubated with 8 μM A3A at 37° C. for two hours. This 202 base pair amplicon was PCR amplified and TA cloned. Single clones were sent for Sanger Sequencing. After alignment to the parent 202mer substrate (Table 1), C to T conversions were quantified as a percentage of total Cs.
To determine more exact parameters that define the discrimination as a function of sterics at the C5 position, we synthesized or obtained dxCTP analogs, with variable (x) 5-position substituents, and used established approaches to generate long ssDNA substrates with homogeneous C modifications (36). These substrates were reacted with A3A, reamplified and analyzed for deamination by restriction digestion at a specific site.

[2] = system: pMG81-M.MpeI plasmid CCGG sites; settings: in vivo, plasmid recovered after induced expression
[3] = system: plasmid DNA CpG sites; format: cell-based, E. coli
[4] = system: pUC19 plasmid DNA; experiment: pUC19 assay (in vitro transfer of SAM or CxSAM, HpaII/HhaI challenge)
[5] = system: unmethylated phage gDNA CpG sites; experiment: Amplicon sequencing of phage gDNA treated with M.MpeI N374K and SAM or CxSAM, then bisulfite or A3A
[6] = system: E. coli genomic DNA CCWGG sites; experiment: Nucleoside LC-MS/MS of genomic DNA after in vivo expression of Dcm variants; settings: dam-/dcm- E. coli, gDNA

Chain of APOBEC3A (A3A) (P31941 whole entry): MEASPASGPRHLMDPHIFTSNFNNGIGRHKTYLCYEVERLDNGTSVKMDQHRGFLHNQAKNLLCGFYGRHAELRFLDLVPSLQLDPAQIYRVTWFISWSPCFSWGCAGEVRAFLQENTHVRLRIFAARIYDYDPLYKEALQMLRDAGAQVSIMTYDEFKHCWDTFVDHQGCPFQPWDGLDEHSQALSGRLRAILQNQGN

5-propynyl-dC [5pyC]
deamination by A3A of ssDNA with all Cs replaced by the modified base [1]: undetectable levels of deamination

M.MpeI N374K: CpG M.MpeI Carboxymethyltransferase with a C-terminal His Tag, SEQ ID NO: 1 (lacks His tag) / SEQ ID NO: 2
HpaII and MspI digestion pattern of encoding plasmid [2]: faint ~2 kB band resistant to MspI digestion | change of 5cxmC signal in the added presence of the CmoA plasmid [3]: an increase in 5cxmC signal | in vivo plasmid carboxymethylation (5cxmC) by LC-MS/MS [3]: can be detected and lost | level of 5cxmC modification across overexpression conditions [3]: greatest level of 5cxmC modification | protection of pUC19 plasmid from restriction digestion ([4]; CxSAM substrate): newly gains the ability to transfer CxSAM | protection of pUC19 plasmid from restriction digestion ([4]; SAM substrate): transfers SAM less efficiently than the WT enzyme | DNA newly resistant to A3A deamination ([5]; CxSAM, A3A deamination): ~ 50% | DNA modified as 5cxmC (cytosine calls at CpGs after bisulfite) ([5]; CxSAM, bisulfite deamination): ~ 50% | DNA newly modified to be 5mC (cytosine calls at CpGs after bisulfite) ([5]; SAM, bisulfite deamination): ~ 60%

B1: Dcm N436K: CCWGG Dcm Carboxymethyltransferase with a C-terminal His Tag, SEQ ID NO: 3 / SEQ ID NO: 4 (protein)
chain: MQENISVTDSYSTGNAAQAMLEKLLQIYDVKTLVAQLNGVGENHWSAAILKRALANDSAWHRLSEKEFAHLQTLLPKPPAHHPHYAFRFIDLFAGIGGIRRGFESIGGQCVFTSEWNKHAVRTYKANHYCDPATHHFNEDIRDITLSHKEGVSDEAAAEHIRQHIPEHDVLLAGFPCQPFSLAGVSKKNSLGRAHGFACDTQGTLFFDVVRIIDARRPAMFVLENVKNLKSHDQGKTFRIIMQTLDELGYDVADAEDNGPDDPKIIDGKHFLPQHRERIVLVGFRRDLNLKADFTLRDISECFPAQRVTLAQLLDPMVEAKYILTPVLWKYLYRYAKKHQARGNGFGYGMVYPNNPQSVTRTLSARYYKDGAEILIDRGWDMATGEKDFDDPLNQQHRPRRLTPRECARLMGFEAPGEAKFRIPVSDTQAYRQFGKSVVVPVFAAVAKLLEPKIKQAVALRQQEAQHGRRSRHHHHHH
modifications: C-terminal His tag; Dcm N436K with His tag
CCWGG sites carboxymethylated (5cxmC relative to total CCWGGs) [6]: > 1.5% | formation of 5cxmC in the native E. coli genome [6]: could catalyze the formation of 5cxmC | methylation of cytosine (detection of 5mC) [6]: could methylate cytosine

B2: WT Dcm: E. coli's naturally occurring DNA Cytosine Methyltransferase (Dcm) (protein, UniProt P0AED9 1-472, looked up)
DNA-cytosine methyltransferase: MQENISVTDSYSTGNAAQAMLEKLLQIYDVKTLVAQLNGVGENHWSAAILKRALANDSAWHRLSEKEFAHLQTLLPKPPAHHPHYAFRFIDLFAGIGGIRRGFESIGGQCVFTSEWNKHAVRTYKANHYCDPATHHFNEDIRDITLSHKEGVSDEAAAEHIRQHIPEHDVLLAGFPCQPFSLAGVSKKNSLGRAHGFACDTQGTLFFDVVRIIDARRPAMFVLENVKNLKSHDQGKTFRIIMQTLDELGYDVADAEDNGPDDPKIIDGKHFLPQHRERIVLVGFRRDLNLKADFTLRDISECFPAQRVTLAQLLDPMVEAKYILTPVLWKYLYRYAKKHQARGNGFGYGMVYPNNPQSVTRTLSARYYKDGAEILIDRGWDMATGEKDFDDPLNQQHRPRRLTPRECARLMGFEAPGEAKFRIPVSDTQAYRQFGNSVVVPVFAAVAKLLEPKIKQAVALRQQEAQHGRRSR
formation of 5cxmC in the native E. coli genome [6]: not | methylation of cytosine (detection of 5mC) [6]: could methylate cytosine
